In the experiment the test system is NRF2. Briefly: Western Blot validation of NRF2 nuclear accumulation and extra-nuclear protein phosphorylation. In kind it is cell-based, human. The following applies: HMVEC-L. The protocol:
8. A Western Blot analysis was done on extra-nuclear and intra-nuclear fractions, separated by differential centrifugation, of serum starved HMVEC-L cell cultures exposed to <1% of a composition of the invention compared with a positive hydrogen peroxide control to determine phosphorylation events (oxidant action) in the extra-nuclear fraction and NRF2 (antioxidant transcription) in the intra-nuclear fraction at 0, 30, 60, 90 and 120 min intervals.
Experimental Methods for Western Blot Validation of NRF2 Nuclear Accumulation: HMVEC-L were treated with 1% of a composition of the invention, nuclear extracts were separated through centrifugal differentiation from the extra-nuclear cytosol at 30, 60 and 120 min and subjected to Western Blot analysis for NRF2. In the Western blot experiment the extra-nuclear fraction was probed for phosphorylated proteins using a combination of anti-phospho serine, threonine and tyrosine antibodies. Virtually all cellular processes are regulated by posttranslational modifications and protein phosphorylation is a prevalent mechanism. […]
For orientation: A western blot detects proteins with antibodies after separation by electrophoresis.

The values that follow come from patent US20150104525A1, “METHOD OF DECREASING FEED CONVERSION RATIO IN FOWL” (Reoxcyn Discoveries Group, Inc., priority 2013, published 2015).

As to `OO` [H2O2, Hydrogen peroxide], the “nuclear NRF2 levels” value (H2O2 positive control, 30 min) is given as “did not increase nuclear NRF2 levels”. For the same compound, the “phosphorylation of extra-nuclear protein” value (H2O2 treatment) is recorded as “marked increase in the phosphorylation”.
